Laboratory results from patent US20250127777A1, “DUAL INHIBITION OF MDM2 AND EIF2-ALPHA INDUCES CELL DEATH IN MULTIPLE CANCER CELL TYPES” (The Regents of the University of Colorado, A Body Corporate, priority 2022, published 2025).

What was measured:
[1] = system: diverse cell types; test: Annexin V-FITC/PI apoptosis assay, elF2α plus MDM2 inhibition; type: cell-based
Method: TPC1, K1, HCT116, MCF7, SJSA, and HEK293FT cells were cultivated in RPMI (TPC1, SJSA), DMEM (K1, MCF7, HEK293FT), and McCoy's (HCT116) media (Gibco, Thermo Fisher Scientific) supplemented with 10% fetal bovine serum (Peak Serum) and 1% antibiotic-antimycotic mixture (Gibco). Cells were plated a day before the treatment and maintained in a humidified atmosphere with 5% of CO2 at 37° C. Both TPC1 and K1 lines were gifts from Dr. Rebecca Schweppe, University of Colorado Anschutz Medical Campus (CU-AMC). Cell line identity has been verified by short tandem repeats profiling at the Cell Technologies Shared Resource, CU-AMC. Colorectal cancer organoid cultures (CRC172) were obtained from the Enteroid Stem Cell Core facility at CU-AMC.
The fraction of apoptotic cells was determined by Annexin V-FITC/PI assay. Briefly, cells harvested by trypsinization were resuspended in Annexin-V binding buffer (10 mM HEPES pH 7.4, 140 mM NaCl, 2.5 mM CaCl2)). Approximately 2*10^5 cells were labeled with Annexin-V-FITC (Invitrogen) and PI (10 μg/ml, Millipore-Sigma) for 15 minutes in the dark before flow cytometric analysis (Accuri C6, Becton Dickinson). […] An aliquot of approximately 5*10^5 cells per sample was mixed with tetramethylrhodamine, ethyl ester, perchlorate (TMRE, Thermo Fisher, 100 nM final concentration) solution, incubated for 10 minutes in the dark, and analyzed by flow cytometer.

[2] = system: elF2α; test: Western blot of elF2α phosphorylation; type: cell-based; settings: 10 μM nutlin-3a, 25 μM GSK2830371, 20 μM nelfinavir; multiple cell lines
Method: (§1) Protein samples were prepared with cells washed twice with PBS and lysed in modified Laemmli buffer (Laemmli, 1970) (1% w/v SDS, 10% w/v glycerol, 100 mM Tris pH 7.2, protease (complete Mini, Roche) and phosphatase (PhosSTOP, Roche) inhibitors). Following a brief sonication (2.5W, 5 sec) and heat denaturation (90° C., 5 min), total protein concentration in whole cell lysates was measured by a BCA Protein Assay Kit (Pierce, Thermo Fisher Scientific). 20 μg of protein per sample was resolved by SDS-PAGE and transferred onto a 0.45 μm PVDF membrane (0.2 μm for ATF3 detection). Membranes were incubated in blocking buffer (5% fat-free milk in wash buffer—20 mM Tris pH 7.6, 150 mM NaCl, 0.2% Tween 20) for an hour at RT and o/n at 4° C. with the primary antibody diluted in a fresh blocking buffer. Next day membranes were washed three times for 10 min in the wash buffer, incubated with HRP-conjugated secondary antibody for an hour at RT, and washed again three times in the wash buffer. SuperSignal West Pico Plus Chemiluminescence Substrate (Pierce) was used for detection and digital images were acquired using an ImageQuant LAS 4000 (GE Healthcare Life Sciences).

[3] = system: caspase 3; test: Western blot of caspase 3 cleavage; type: cell-based; settings: TPC1 cells; 20 μM nelfinavir, alone or with 10 μM nutlin-3a
Method: as §1, with “Following” for “Protein samples were prepared with cells washed twice with PBS and lysed in modified Laemmli buffer (Laemmli, 1970) (1% w/v SDS, 10% w/v glycerol, 100 mM Tris pH 7.2, protease (complete Mini, Roche) and phosphatase (PhosSTOP, Roche) inhibitors). Following”

[4] = system: HCT116 xenograft tumors; test: HCT116 xenograft tumor model; type: in vivo; settings: nude mice, 200 mg/kg nelfinavir and/or 200 mg/kg milademetan
Method: Athymic nude mice (NU/NU) weighting 20 to 30 grams and being 8-12 weeks of age (Charles River Labs) were housed in cages under standard conditions (22° C., 50% relative humidity, 12-h light/dark cycles) and provided with food and water ad libitum. Next, […] exponentially growing HCT116 cells resuspended in 100 μl Matrigel/PBS (5 mg/ml final) were injected subcutaneously into both flanks. Tumors grew for 10-14 days before treatment initiation. Experimental animals were given 200 mg/kg nelfinavir and/or 200 mg/kg Milademetan (Rain Therapeutics) by oral gavage once daily, 5 days a week. Tested compounds were prepared in a mixture of 2% Klucel (hydroxypropyl cellulose), 0.5% Tween 80, and 35% ethanol. Tumor volumes (v) were estimated daily, 5 days a week using caliper measurements and formula v=(I×w^2)/2, where I represents the greatest length of the tumor and w is tumor width in the perpendicular axis. Average volumes of the right and left flank tumors were used for plotting and calculations. Equal ratios of male and female mice were used in treatment groups (5 males and 5 females). All in vivo experiments were approved by the Institutional Animal Care and Use Committee at the CU-AMC (IACUC protocol 00432).
After indicated treatments, cells were washed with PBS, total RNA was extracted using Trizol substitute (38% Phenol, saturated, pH 4.3, 0.8 M guanidine thiocyanate, 0.4 M ammonium thiocyanate, 0.1 M sodium acetate, pH 5.0, 5% glycerol), and converted to cDNA with High-Capacity cDNA Reverse Transcription Kit (Thermo Fisher). Next, diluted cDNA was used in quantitative PCR reaction using SYBR Select Master Mix for CFX (Thermo Fisher). Detected mRNA levels were normalized to 18s rRNA values.
Tumors fixed in 4% formaldehyde were transferred to 70% ethanol and embedded in paraffin at the Pathology Shared Resource-Research Histology, University of Colorado Anschutz Medical Campus. Three tumors from each experimental group were sectioned, stained with DAPI and Ki67 primary antibody using Akoya Opal technology (Akoya Biosciences), and scanned at six representative regions with Vectra 3.0 (Akoya Biosciences) at the Human Immune Monitoring Shared Resource (University of Colorado Anschutz). Next, InForm image analysis software (Akoya Biosciences) was used for automated identification of nuclei based on the DAPI signal. Ki67 nuclear fluorescence was outputted for all nuclei.

[5] = system: TPC1 and HCT116; test: Polysome profiling (polysome/monosome ratio); type: cell-based; settings: 24 hours
Method: TPC1 and HCT116 were plated at 6*104/cm2 on 143 cm2 dishes, cultivated o/n, and treated accordingly. Ten minutes before the harvest cultivation media was supplemented with cycloheximide (CHX) at final concentration of 100 μg/ml. Next, cells were washed twice with ice-cold PBS with 100 μg/ml CHX and lysed in polysome preparation lysis buffer (20 mM HEPES pH 7.4, 15 mM MgCl2, 200 mM NaCl, 1% Triton X-100, 100 μg/ml CHX, 2 mM DTT, and 100U SuperaseIN). Lysates were cleared of debris by centrifugation at 20,000g, 4° C. for 10 minutes. Total nucleic acid content in lysates was measured by absorbance at 260 nm and used for sample concentration normalization. Next, 500 μl of the lysate was loaded on 10-60% sucrose gradients in SW41 tubes in lysis buffer lacking Triton X-100. These gradients were prepared using a BioComp system and chilled to 4° C. before use. Samples were ultracentrifuged at 36,000 rpm for 3 hours and 10 min, at 4° C., then samples were fractionated using a BioComp system, monitoring absorbance at 260 nm while collecting fractions of approximately 0.4 ml each.

[6] = system: ATF3 and ATF4; test: Western blot of ATF3 and ATF4 protein; type: cell-based; settings: TPC1 cells; nelfinavir alone
Method: as §1

Cc1c(O)cccc1C(=O)N[C@@H](CSc1ccccc1)[C@H](O)CN1C[C@H]2CCCC[C@H]2C[C@H]1C(=O)NC(C)(C)C [nelfinavir]
synergy with small molecule inhibitors of MDM2 to elicit p53-dependent cell death [1]: synergize with small molecule inhibitors of MDM2 to elicit p53-dependent cell death
elF2α phosphorylation [2]: induced elF2α phosphorylation
caspase 3 cleavage / activation [3]: did not induced caspase 3 cleavage
animal survival (Kaplan Meier; humane endpoint tumor size>1000 mm^3) ([4]; oral gavage): had to be sacrificed at the humane endpoint
tumor growth ([4]; oral gavage once daily, 5 days a week): Tumors continued to grow
polysome/monosome ratio [5]: decreased the polysome/monosome ratio
ATF4 protein stabilization [6]: stabilized ATF4
